Source: patent US10087178B2, “Substituted spiropyrido[1,2-a]pyrazine derivative and medicinal use thereof as HIV integrase inhibitor” (priority 2012, dated 2018)
Where a name gives a salt, the structure may show the parent alone. Read-outs that look alike come from different tables or passages of the source.

Tested on: HIV-1 NL4-3 strain
Experiment: Evaluation of antiviral activity: acute infection system of MT-4 cell with HIV-1 NL4-3 strain
Format: cell-based
[1] = Human immunodeficiency virus 1, NL43, MT4, 120 h, MT-4 cells infected with HIV-1 NL4-3 strain (MOI 0.05), cultured 5 days, Cell Titer-Glo, read-out: antiviral activity (EC50)
[2] = Human immunodeficiency virus 1, NL43, MT4, 120 h, read-out: antiviral activity (EC50), MT-4 cells infected with HIV-1 NL4-3 strain (MOI 0.05), cultured 5 days, Cell Titer-Glo
[3] = Human immunodeficiency virus 1, NL43, MT4, 120 h, antiviral activity, MT-4 cells infected with HIV-1 NL4-3 (MOI 0.05), 5 days culture, Cell Titer-Glo luminescence, read-out: EC50

## COC[C@H]1C[C@@]12CN(C(C)C)C(=O)c1c(O)c(=O)c(C(=O)NCc3cccc(Cl)c3F)cn12 [Example T12, (1S,2S)-N-(3-chloro-2-fluorobenzyl)-9′-hydroxy-2′-isopropyl-2-(methoxymethyl)-1′,8′-dioxo-1′,2′,3′,8′-tetrahydrospiro[cylcopropane-1,4′-pyrido[1,2-a]pyrazine]-7′-carboxamide hydrochloride]
[1]
  EC50: 5.7 nM

## CCN1C[C@@]2(C[C@@H]2CO)n2cc(C(=O)NCc3ccc(F)cc3F)c(=O)c(O)c2C1=O [Example T1, (1S,2S)-N-(2,4-difluorobenzyl)-2′-ethyl-9′-hydroxy-2-(hydroxymethyl)-1′,8′-dioxo-1′,2′,3′,8′-tetrahydrospiro[cyclopropane-1,4′-pyrido[1,2-a]pyrazine]-7′-carboxamide hydrochloride]
[2]
  EC50: 18 nM

## CN1C[C@]2(C[C@H](CO)C2)n2cc(C(=O)NCc3cccc(Cl)c3F)c(=O)c(O)c2C1=O [Example S37, N-(3-chloro-2-fluorobenzyl)-9′-hydroxy-cis-3-(hydroxymethyl)-2′-methyl-1′,8′-dioxo-1′,2′,3′,8′-tetrahydrospiro[cyclobutane-1,4′-pyrido[1,2-a]pyrazine]-7′-carboxamide hydrochloride]
[1]
  EC50: 3.8 nM

## CC(C)O[C@H]1C[C@@]2(CN(C(C)C)C(=O)c3c(O)c(=O)c(C(=O)NCc4ccc(F)cc4F)cn32)C1 [Example S32, N-(2,4-difluorobenzyl)-9′-hydroxy-trans-3-isopropoxy-2′-isopropyl-1′,8′-dioxo-1′,2′,3′,8′-tetrahydrospiro[cyclobutane-1,4′-pyrido[1,2-a]pyrazine]-7′-carboxamide hydrochloride]
[1]
  EC50: 6.6 nM

## CN1C[C@@]2(C[C@@H]2CO)n2cc(C(=O)NCc3cccc(Cl)c3F)c(=O)c(O)c2C1=O [Example T15, (1S,2S)-N-(3-chloro-2-fluorobenzyl)-9′-hydroxy-2-(hydroxymethyl)-2′-methyl-1′,8′-dioxo-1′,2′,3′,8′-tetrahydrospiro[cyclopropane-1,4′-pyrido[1,2-a]pyrazine]-7′-carboxamide hydrochloride]
[2]
  EC50: 20 nM

## CCN1C[C@]2(C[C@H](O)C2)n2cc(C(=O)NCc3ccc(F)cc3F)c(=O)c(O)c2C1=O [Example S18, N-(2,4-difluorobenzyl)-2′-ethyl-cis-3,9′-dihydroxy-1′,8′-dioxo-1′,2′,3′,8′-tetrahydrospiro[cyclobutane-1,4′-pyrido[1,2-a]pyrazine]-7′-carboxamide hydrobromide]
[3]
  EC50: 16 nM

## CCN1C[C@@]2(C[C@@H]2C(=O)N(C)C)n2cc(C(=O)NCc3ccc(F)cc3F)c(=O)c(O)c2C1=O [Example 19, (1S,2S)—N^7′-(2,4-difluorobenzyl)-2′-ethyl-9′-hydroxy-N^2,N^2-dimethyl-1′,8′-dioxo-1′,2′,3′,8′-tetrahydrospiro[cyclopropane-1,4′-pyrido[1,2-a]pyrazine]-2,7′-dicarboxamide hydrochloride]
[3]
  EC50: 4.2 nM

## CC(C)O[C@H]1C[C@]2(CN(C)C(=O)c3c(O)c(=O)c(C(=O)NCc4cccc(Cl)c4F)cn32)C1 [Example S41, N-(3-chloro-2-fluorobenzyl)-9′-hydroxy-cis-3-isopropoxy-2′-methyl-1′,8′-dioxo-1′,2′,3′,8′-tetrahydrospiro[cyclobutane-1,4′-pyrido[1,2-a]pyrazine]-7′-carboxamide hydrochloride]
[1]
  EC50: 3.5 nM

## COC[C@H]1C[C@]2(CN(C)C(=O)c3c(O)c(=O)c(C(=O)NCc4cccc(Cl)c4F)cn32)C1 [Example 33, N-(3-chloro-2-fluorobenzyl)-9′-hydroxy-cis-3-(methoxymethyl)-2′-methyl-1′,8′-dioxo-1′,2′,3′,8′-tetrahydrospiro[cyclobutane-1,4′-pyrido[1,2-a]pyrazine]-7′-carboxamide 4-methylbenzenesulfonate]
MT-4 cells infected with HIV-1 NL4-3 strain (MOI 0.05), cultured 5 days, Cell Titer-Glo, read-out: antiviral activity (EC50)
  EC50: 0.9 nM
